Our source for the Ki values is patent US12297190B2, “Modulators of STING (stimulator of interferon genes)” (PFIZER INC., priority 2019, dated 2025).

The term pKi denotes −log10 of the Ki, conventionally taken in molar units. A higher pKi goes with a small Ki.

pKi: −log10 of the molar value.

Chain of R232-STING (Q86WV6 155-341 H232R): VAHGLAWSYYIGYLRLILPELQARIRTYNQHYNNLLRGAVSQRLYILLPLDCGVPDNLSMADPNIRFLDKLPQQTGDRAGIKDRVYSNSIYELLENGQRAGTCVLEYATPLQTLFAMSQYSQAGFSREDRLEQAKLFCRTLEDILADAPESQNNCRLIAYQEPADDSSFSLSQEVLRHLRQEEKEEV

This test addresses R232-STING (Homo sapiens, UniProt Q86WV6, H232R). The test can be described thus: biochemical.
As for `CCn1nc(C)cc1-c1n[nH]c(-c2cc(C(N)=O)cc3c2cnn3CCN2C[C@H](O)[C@H]2C)n1` [ZZZ091, 4-[3-(1-ethyl-3-methyl-1H-pyrazol-5-yl)-1H-1,2,4-triazol-5-yl]-1-{2-[(2R,3S)-3-hydroxy-2-methylazetidin-1-yl]ethyl}-1H-indazole-6-carboxamide], the pKi is 6.08.

Turning to `CCn1nc(C)cc1-c1n[nH]c(-c2cc(C(N)=O)cc3c2cnn3CCN2CCC23CC3)n1` [ZZZ093, 1-[2-(4-azaspiro[2.3]hexan-4-yl)ethyl]-4-[3-(1-ethyl-3-methyl-1H-pyrazol-5-yl)-1H-1,2,4-triazol-5-yl]-1H-indazole-6-carboxamide], the pKi was less than 6.00.

Compound `CCn1nc(C)cc1-c1n[nH]c(-c2cc(C(N)=O)cc3c2cnn3CCN2CC3(CCCO3)C2)n1` [ZZZ094, 4-[3-(1-ethyl-3-methyl-1H-pyrazol-5-yl)-1H-1,2,4-triazol-5-yl]-1-[2-(5-oxa-2-azaspiro[3.4]octan-2-yl)ethyl]-1H-indazole-6-carboxamide] gave a negative-log Ki (pKi) of 6.26.

Take `CCn1nc(C)cc1-c1n[nH]c(-c2cc(C(N)=O)cc3c2cnn3CCN2CCC3CC3C2)n1` (stereo not drawn) [ZZZ095, 1-[2-(3-azabicyclo[4.1.0]heptan-3-yl)ethyl]-4-[3-(1-ethyl-3-methyl-1H-pyrazol-5-yl)-1H-1,2,4-triazol-5-yl]-1H-indazole-6-carboxamide]: the pKi was 6.11.

`CCn1nc(C)cc1-c1n[nH]c(-c2cc(C(N)=O)cc3c2cnn3CCN2CC(CO)OCC2C)n1` (stereo not drawn) [ZZZ096, 4-[3-(1-ethyl-3-methyl-1H-pyrazol-5-yl)-1H-1,2,4-triazol-5-yl]-1-{2-[2-(hydroxymethyl)-5-methylmorpholin-4-yl]ethyl}-1H-indazole-6-carboxamide] gave a pKi of 6.07.

`CCn1nc(C)cc1-c1n[nH]c(-c2cc(C(N)=O)cc3c2cnn3CCN2C[C@@H](C)OC[C@H]2C)n1` [ZZZ097, 1-{2-[(2R,5R)-2,5-dimethylmorpholin-4-yl]ethyl}-4-[3-(1-ethyl-3-methyl-1H-pyrazol-5-yl)-1H-1,2,4-triazol-5-yl]-1H-indazole-6-carboxamide] had a pKi of 6.18.

Compound `CCn1nc(C)cc1-c1n[nH]c(-c2cc(C(N)=O)cc3c2cnn3CCN2CCO[C@H](C)C2)n1` [ZZZ098, 4-[3-(1-ethyl-3-methyl-1H-pyrazol-5-yl)-1H-1,2,4-triazol-5-yl]-1-{2-[(2R)-2-methylmorpholin-4-yl]ethyl}-1H-indazole-6-carboxamide] had a negative-log Ki (pKi) of 6.27.

`CCn1nc(C)cc1-c1n[nH]c(-c2cc(C(N)=O)cc3c2cnn3CCN2CC(O)C2)n1` [ZZZ100, 4-[3-(1-ethyl-3-methyl-1H-pyrazol-5-yl)-1H-1,2,4-triazol-5-yl]-1-[2-(3-hydroxyazetidin-1-yl)ethyl]-1H-indazole-6-carboxamide]: the negative logarithm of the Ki (pKi) is 6.07. Against the preceding compound, the pKi is 0.20 log units lower.

Turning to `CCn1nc(C)cc1-c1n[nH]c(-c2cc(C(N)=O)cc3c2cnn3CCN(C)CC#N)n1` [ZZZ101, 1-{2-[(cyanomethyl)(methyl)amino]ethyl}-4-[3-(1-ethyl-3-methyl-1H-pyrazol-5-yl)-1H-1,2,4-triazol-5-yl]-1H-indazole-6-carboxamide], the pKi is 6.29. This pKi is 0.22 log units higher than that of the compound before.

The compound `CCn1nc(C)cc1-c1n[nH]c(-c2cc(C(N)=O)cc3c2cnn3CCN2CCOCC2(C)C)n1` [ZZZ102, 1-[2-(3,3-dimethylmorpholin-4-yl)ethyl]-4-[3-(1-ethyl-3-methyl-1H-pyrazol-5-yl)-1H-1,2,4-triazol-5-yl]-1H-indazole-6-carboxamide] had a pKi of 6.05.

Consider `CCn1nc(C)cc1-c1n[nH]c(-c2cc(C(N)=O)cc3c2cnn3CCN2CC(C)(O)C2)n1` [ZZZ103, 4-[3-(1-ethyl-3-methyl-1H-pyrazol-5-yl)-1H-1,2,4-triazol-5-yl]-1-[2-(3-hydroxy-3-methylazetidin-1-yl)ethyl]-1H-indazole-6-carboxamide], for which the pKi was less than 6.00.

Regarding `CCN(CCC#N)CCn1ncc2c(-c3nc(-c4cc(C)nn4CC)n[nH]3)cc(C(N)=O)cc21` [ZZZ104, 1-{2-[(2-cyanoethyl)(ethyl)amino]ethyl}-4-[3-(1-ethyl-3-methyl-1H-pyrazol-5-yl)-1H-1,2,4-triazol-5-yl]-1H-indazole-6-carboxamide], the negative-log Ki (pKi) was 6.09.

In the case of `CCn1nc(C)cc1-c1n[nH]c(-c2cc(C(N)=O)cc3c2cnn3CCN(C)CC(N)=O)n1` [ZZZ105, 1-{2-[(2-amino-2-oxoethyl)(methyl)amino]ethyl}-4-[3-(1-ethyl-3-methyl-1H-pyrazol-5-yl)-1H-1,2,4-triazol-5-yl]-1H-indazole-6-carboxamide], the negative-log Ki (pKi) was 6.06.

Compound `CCn1nc(C)cc1-c1n[nH]c(-c2cc(C(N)=O)cc3c2cnn3CCN2CC[C@H](OC)C2)n1` [ZZZ106, 4-[3-(1-ethyl-3-methyl-1H-pyrazol-5-yl)-1H-1,2,4-triazol-5-yl]-1-{2-[(3S)-3-methoxypyrrolidin-1-yl]ethyl}-1H-indazole-6-carboxamide] had a pKi of 6.03.

Turning to `CCn1nc(C)cc1-c1n[nH]c(-c2cc(C(N)=O)cc3c2cnn3CCN2CC[C@@H](O)C2)n1` [ZZZ107, 4-[3-(1-ethyl-3-methyl-1H-pyrazol-5-yl)-1H-1,2,4-triazol-5-yl]-1-{2-[(3R)-3-hydroxypyrrolidin-1-yl]ethyl}-1H-indazole-6-carboxamide], the pKi is less than 6.00.

Compound `CCn1nc(C)cc1-c1n[nH]c(-c2cc(C(N)=O)cc3c2cnn3CCN(C)C2CCC2)n1` [ZZZ108, 1-{2-[cyclobutyl(methyl)amino]ethyl}-4-[3-(1-ethyl-3-methyl-1H-pyrazol-5-yl)-1H-1,2,4-triazol-5-yl]-1H-indazole-6-carboxamide] gave a pKi of 6.07.

With `CCn1nc(C)cc1-c1n[nH]c(-c2cc(C(N)=O)cc3c2cnn3CCN(C)CCO)n1` [ZZZ109, 4-[3-(1-ethyl-3-methyl-1H-pyrazol-5-yl)-1H-1,2,4-triazol-5-yl]-1-{2-[(2-hydroxyethyl)(methyl)amino]ethyl}-1H-indazole-6-carboxamide], the pKi is 6.02.

Regarding `CCn1nc(C)cc1-c1n[nH]c(-c2cc(C(N)=O)cc3c2cnn3CCN2CC3CCC3C2)n1` (stereo not drawn) [ZZZ110, 1-[2-(3-azabicyclo[3.2.0]heptan-3-yl)ethyl]-4-[3-(1-ethyl-3-methyl-1H-pyrazol-5-yl)-1H-1,2,4-triazol-5-yl]-1H-indazole-6-carboxamide], the pKi was 6.21.

The compound `CCn1nc(C)cc1-c1n[nH]c(-c2cc(C(N)=O)cc3c2cnn3CCN2CC[C@@H](OC)C2)n1` [ZZZ111, 4-[3-(1-ethyl-3-methyl-1H-pyrazol-5-yl)-1H-1,2,4-triazol-5-yl]-1-{2-[(3R)-3-methoxypyrrolidin-1-yl]ethyl}-1H-indazole-6-carboxamide] had a pKi of 6.07.

For `CCN(CCO)CCn1ncc2c(-c3nc(-c4cc(C)nn4CC)n[nH]3)cc(C(N)=O)cc21` [ZZZ112, 1-{2-[ethyl(2-hydroxyethyl)amino]ethyl}-4-[3-(1-ethyl-3-methyl-1H-pyrazol-5-yl)-1H-1,2,4-triazol-5-yl]-1H-indazole-6-carboxamide], the pKi is less than 6.00.

`CCn1nc(C)cc1-c1n[nH]c(-c2cc(C(N)=O)cc3c2cnn3CCN2C[C@@H]3C[C@H]2CO3)n1` [ZZZ113, 4-[3-(1-ethyl-3-methyl-1H-pyrazol-5-yl)-1H-1,2,4-triazol-5-yl]-1-{2-[(1S,4S)-2-oxa-5-azabicyclo[2.2.1]heptan-5-yl]ethyl}-1H-indazole-6-carboxamide] gave a negative logarithm of the Ki (pKi) of 6.14.

`CCn1nc(C)cc1-c1n[nH]c(-c2cc(C(N)=O)cc3c2cnn3CCN2CCO[C@@H](CO)C2)n1` [ZZZ115, 4-[3-(1-ethyl-3-methyl-1H-pyrazol-5-yl)-1H-1,2,4-triazol-5-yl]-1-{2-[(2R)-2-(hydroxymethyl)morpholin-4-yl]ethyl}-1H-indazole-6-carboxamide] had a negative-log Ki (pKi) of 6.07. This pKi and that of the compound before are within 0.2 log units of each other.

`CCn1nc(C)cc1-c1n[nH]c(-c2cc(C(N)=O)cc3c2cnn3CCN2CCOC[C@@H]2CO)n1` [ZZZ116, 4-[3-(1-ethyl-3-methyl-1H-pyrazol-5-yl)-1H-1,2,4-triazol-5-yl]-1-{2-[(3S)-3-(hydroxymethyl)morpholin-4-yl]ethyl}-1H-indazole-6-carboxamide] gave a negative-log Ki (pKi) of less than 6.00.

In turn, `CCn1nc(C)cc1-c1n[nH]c(-c2cc(C(N)=O)cc3c2cnn3CCN2CCO[C@H](CO)C2)n1` [ZZZ118, 4-[3-(1-ethyl-3-methyl-1H-pyrazol-5-yl)-1H-1,2,4-triazol-5-yl]-1-{2-[(2S)-2-(hydroxymethyl)morpholin-4-yl]ethyl}-1H-indazole-6-carboxamide] had a pKi of 6.27.

`CCn1nc(C)cc1-c1n[nH]c(-c2cc(C(N)=O)cc3c2cnn3CCN2CCOC[C@H]2CO)n1` [ZZZ120, 4-[3-(1-ethyl-3-methyl-1H-pyrazol-5-yl)-1H-1,2,4-triazol-5-yl]-1-{2-[(3R)-3-(hydroxymethyl)morpholin-4-yl]ethyl}-1H-indazole-6-carboxamide]: the pKi was 6.04.

Regarding `CCn1nc(CN)cc1-c1nc(-c2nc(C(N)=O)cc3c2cnn3C)n(C)n1` [ZZZ121, 4-{3-[3-(aminomethyl)-1-ethyl-1H-pyrazol-5-yl]-1-methyl-1H-1,2,4-triazol-5-yl}-1-methyl-1H-pyrazolo[4,3-c]pyridine-6-carboxamide], the pKi was less than 6.00.

Turning to `CCn1nc(CO)cc1-c1cnc(-c2cc(C(N)=O)cc3c2cnn3C)[nH]1` [ZZZ122, 4-{5-[1-ethyl-3-(hydroxymethyl)-1H-pyrazol-5-yl]-1H-imidazol-2-yl}-1-methyl-1H-indazole-6-carboxamide], the pKi is less than 6.05.

`CCn1nc(C)c(O)c1-c1cnc(-c2cc(C(N)=O)cc3c2cnn3C)[nH]1` [ZZZ123, 4-[5-(1-ethyl-4-hydroxy-3-methyl-1H-pyrazol-5-yl)-1H-imidazol-2-yl]-1-methyl-1H-indazole-6-carboxamide] gave a negative logarithm of the Ki (pKi) of 7.20.

Compound `CCn1nc(C(=O)O)cc1-c1cnc(-c2cc(C(N)=O)cc3c2cnn3C)[nH]1` [ZZZ124, 5-[2-(6-carbamoyl-1-methyl-1H-indazol-4-yl)-1H-imidazol-5-yl]-1-ethyl-1H-pyrazole-3-carboxylic acid] had a negative-log Ki (pKi) of less than 7.05.

For `CCn1nc(C)cc1-c1nc(-c2nc(C(N)=O)cc3c2cnn3C)n(CCN(C)C)n1` [ZZZ125, 4-{1-[2-(dimethylamino)ethyl]-3-(1-ethyl-3-methyl-1H-pyrazol-5-yl)-1H-1,2,4-triazol-5-yl}-1-methyl-1H-pyrazolo[4,3-c]pyridine-6-carboxamide], the pKi was 6.29.
